Reference: US20230043035A1, “AGAROPHYTON CHILENSIS EXTRACT, RICH IN FREE FATTY ACIDS, AS A NUTRACEUTICAL OR NUTRITIONAL SUPPLEMENT, SUITABLE FOR MODULATING PPAR# ACTIVITY” (UNIVERSIDAD ANDRES BELLO, priority 2019, published 2023)

How the values were obtained:
[1] = system: 3T3-L1 cells; assay: Differentiation of 3T3-L1 cells into adipocytes, Oil Red O accumulation; type: cell-based; conditions: 25 μM, 3T3-L1, day 10, n=4
Method: (§1) In order to assess the effect of the claimed extracts on differentiation of fibroblasts into adipocytes, 3T3-L1 cells are cultured at low passage, avoiding cells from reaching confluence. […] Thereafter, the maintenance medium was replaced.

[2] = system: fabp4 gene; assay: mRNA expression of adipocyte differentiation marker fabp4 in 3T3-L1 cells (qPCR); type: cell-based; conditions: 25 μM, 3T3-L1, day 7, n=3
Method: as §1

[3] = biological target: T1, PPARγ (Homo sapiens, UniProt P37231); assay: PPARγ activation assay (gal4 PPARγ reporter gene) in PC12 cells; type: cell-based; conditions: 25 μM, n=10
T1 construct: GAL4 (fusion partner); expressed in transfected cells; host or cells: PC12 cells, transiently transfected with Lipofectamine 2000
T1 sequence (P37231 238-503 limits assumed): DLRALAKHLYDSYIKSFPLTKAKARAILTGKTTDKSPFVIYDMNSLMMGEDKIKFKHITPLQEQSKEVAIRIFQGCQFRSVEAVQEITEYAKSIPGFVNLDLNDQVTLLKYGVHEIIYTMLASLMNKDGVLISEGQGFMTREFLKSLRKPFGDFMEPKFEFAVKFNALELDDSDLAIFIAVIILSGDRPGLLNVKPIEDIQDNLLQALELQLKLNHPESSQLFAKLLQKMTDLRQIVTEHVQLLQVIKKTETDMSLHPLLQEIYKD
Method: In the PPARγ activation assay, an assay with the reporter gene gal4 PPARγ is performed, which allow assessing the activation of PPARγ induced by ligand, to which end concentrations of 30 and 60 μg/mL were used. PC12 cells were seeded in a 48-well plate at a density of 100,000 cells/well/250 μL of maintenance medium containing the medium RPMI1640® (Roswell Park Memorial Institute-1640 Medium) supplemented with 10% of horse serum (HS), 5% of fetal bovine serum (FBS) and 1× antibiotic/antimicotic (Ab-Am). Then, the DNA (0.8 μg luciferase plasmid (MH100tkLUC), 0.8 μg PPARγGAL4 plasmid and 0.053 μg β-galactosidase plasmid, (β-Gal)) were mixed in OptiMEM® (Opti-Minimun Essential Medium). This constitutes the DNA mixture. In parallel, lipofectamine 2000 was diluted in OptiMEM®. This constitutes the Lipofectamine® mixture. […] The lysate was collected, centrifuged for 1 minute at 14000 rpm, the β-galactosidase and luciferase activity in the supernatant was measured, and the times of PPARγ activation was calculated relative to the DMSO control (final concentration in the medium of 0.1%). In parallel, the activity of β-galactosidase was assessed (colorimetry). […] The activity results were expressed as times of increase in relation to the activity obtained with control cells (treated only with DMSO). […]

[4] = system: 3T3-L1 cells; assay: MTT viability assay in 3T3-L1 cells of the differentiation assay; type: cell-based; conditions: 25 μM, 3T3-L1, n=3
Method: In order to assess the effect of the claimed extracts on differentiation of fibroblasts into adipocytes, 3T3-L1 cells are cultured at low passage, avoiding cells from reaching confluence. […] Thereafter, the maintenance medium was replaced. […] After removing MTT, DMSO (99.9%) was added to lyse cells and dissolve MTT/MTT formazan. In order to assess absorbance at 570 nm and 620 nm in a spectrophotometer, 100 μl of this solution were moved to a 96-well plate. The difference between absorbances was calculated, and the survival relative to the control (DMSO) was determined.

[5] = system: cortical neurons; assay: Neuroprotection assay: cortical neurons damaged with oligomycin A, MTT viability; type: cell-based, rat
Text: To assess the neuroprotective capacity of Extract B, a model of neuronal damage caused by chemical ischemia was used, preferably the model of damage caused by oligomycin A. Oligomycin A is a macrolide that blocks oxidative phosphorylation, inhibiting mitochondrial ATP synthase.
In order to assess the neuroprotective capacity, a primary culture of cortical neurons of stage E18 rat embryos was used. To this end, adult female rats were acquired, pregnant at stage 18, from the CINBIOT bioterium of the Faculty of Biological Science, Pontificia Universidad Católica de Chile. […]
On the 9th of culture, the challenge with oligomycin A was carried out. […] Thereafter, neuronal viability was determined, by removing the entire culture medium, it was washed once with PBS and incubated with 0.5 mg/mL of MTT in neurobasal medium without phenol red at 37° C. for 2 hours to establish the mitochondrial activity, wherein MTT (yellow) is transformed into MTT formazan (dark blue), when reduced by live cells. […] Subsequently, 100 μl of this solution were moved to a 96-wel plate to measure absorbance at 570 nm and 620 nm in spectrophotometer. The difference between absorbances (570-620) was calculated, and the survival was estimated relative to the control treated with DMSO and without damage caused by oligomycin A. The presence of MTT formazan is quantified at 570 nm. […]

CC(C)C[C@H](NC(=O)OCC1c2ccccc2-c2ccccc21)C(=O)O [FMOC-Leu]
Oil Red O (neutral lipid) accumulation, times relative to control [1]: 1.1 | fabp4 mRNA expression, times relative to control DMSO [2]: 1.7 times | PPARγ transcriptional activity, times higher than negative control [3]: 14.7 times | cell survival (MTT) relative to control (DMSO) [4]: 100%

CC[C@@H]1/C=C/C=C/C[C@H](C)[C@H](O)[C@](C)(O)C(=O)[C@H](C)[C@@H](O)[C@H](C)C(=O)[C@H](C)[C@@H](O)[C@H](C)/C=C/C(=O)O[C@H]2[C@@H](C)[C@@H](CC1)O[C@@]1(CC[C@@H](C)[C@@H](C[C@H](C)O)O1)[C@@H]2C [oligomycin A, Oligomycin A]
neuronal viability after oligomycin A, % of undamaged DMSO control ([5]; oligomycin A 2 μM 30 min, no extract, rat cortical neurons): 22.5%

vitamin E
protection against oligomycin A ([5]; 10 μM alone, data not shown): does not provide protection
